Source: US7445641B1, “Biomaterials modified with superoxide dismutase mimics” (priority 1999, dated 2008)

Legend:
[1] = polypropylene admixed 2% by weight, melted at 250° C., extracted with pure water
Description: 0.105 g of Compound 38 was added to 4.9 g of cryoground polypropylene. The mixture was melted at 250° C. and extruded into a strand and a fiber. In this manner, a polypropylene modified with a non-proteinaceous catalyst, 2% by weight, was made. The product strand was cryoground and extracted with pure water.

[2] = Stopped-flow kinetic analysis of superoxide dismutation; assay type: biochemical; set-up: kcat pH 8.1 / kcat pH 7.4: unit not given here
Text: Stopped-flow kinetic analysis is an accurate and direct method for quantitatively monitoring the decay rates of superoxide in water.
For the attainment of consistent and accurate measurements all reagents were biologically clean and metal-free. To achieve this, all buffers (Calbiochem) were biological grade, metal-free buffers and were handled with utensils which had been washed first with 0.1N HCl, followed by purified water, followed by a rinse in a 10^−4 M EDTA bath at pH 8, followed by a rinse with purified water and dried at 65° C. for several hours. Dry DMSO solutions of potassium superoxide (Aldrich) were prepared under a dry, inert atmosphere of argon in a Vacuum Atmospheres dry glovebox using dried glassware. The DMSO solutions were prepared immediately before every stopped-flow experiment. A mortar and pestle were used to grind the yellow solid potassium superoxide (~100 mg). The powder was then ground with a few drops of DMSO and the slurry transferred to a flask containing an additional 25 ml of DMSO. The resultant slurry was stirred for ½ h and then filtered. This procedure gave reproducibly ~2 mM concentrations of superoxide in DMSO. These solutions were transferred to a glovebag under nitrogen in sealed vials prior to loading the syringe under nitrogen. It should be noted that the DMSO/superoxide solutions are extremely sensitive to water, heat, air, and extraneous metals. A fresh, pure solution has a very slight yellowish tint.
Water for buffer solutions was delivered from an in-house deionized water system to a Barnstead Nanopure Ultrapure Series 550 water system and then double distilled, first from alkaline potassium permanganate and then from a dilute EDTA solution. For example, a solution containing 1.0 g of potassium permanganate, 2 liters of water and additional sodium hydroxide necessary to bring the pH to 9.0 were added to a 2-liter flask fitted with a solvent distillation head. This distillation will oxidize any trace of organic compounds in the water. The final distillation was carried out under nitrogen in a 2.5-liter flask containing 1500 ml of water from the first still and 1.0×10^−6 M EDTA. This step will remove remaining trace metals from the ultrapure water. To prevent EDTA mist from volatilizing over the reflux arm to the still head, the 40-cm vertical arm was packed with glass beads and wrapped with insulation. This system produces deoxygenated water that can be measured to have a conductivity of less than 2.0 nanomhos/cm^2.
The stopped-flow spectrometer system was designed and manufactured by Kinetic Instruments Inc. (Ann Arbor, Mich.) and was interfaced to a MAC IICX personal computer. The software for the stopped-flow analysis was provided by Kinetics Instrument Inc. and was written in QuickBasic with MacAdios drivers. Typical injector volumes (0.10 ml of buffer and 0.006 ml of DMSO) were calibrated so that a large excess of water over the DMSO solution were mixed together. The actual ratio was approximately 19/1 so that the initial concentration of superoxide in the aqueous solution was in the range 60-120 μM. […]

## [Cl-].[Cl-].[Mn+2].c1cc2nc(c1)CN[C@@H]1CCCC[C@H]1NCCN[C@@H]1CCCC[C@H]1NC2 [Compound 38, Manganese (II) dichloro{(4R,9R,14R,19R)-3,10,13,20,26-pentaazatetracyclo [20.3.1.04,9.014,19]hexacosa-1(26),22(23),24-triene}]
[1]
  elution of the admixed compound from the cryoground polymer: ~10%
[2]; extracted with pure water from polypropylene strand, confirmed by stopped-flow kinetic analysis and HPLC-UV
  activity of compound extracted from the strand: Active
[2]; pH 7.4
  kcat pH 7.4: 1.64
[2]; pH 8.1
  kcat pH 8.1: 1.19
